Assay results published in paper PMC10730852 (Communications Biology, 2023).

Tests used:
Cph001^D189A = experiment: Coupled enzyme assay of Cph001 variant; type: biochemical, Streptosporangium roseum; conditions: for absorbance at 340 nm, Average of triplicate: 2 mM substrate + ATP
Experimental: (§1) The phosphorylation reaction was measured by a coupled enzyme assay as following. The reaction 1, performed by 0.77 μM Cph001 with 2 mM antibiotic substrates (CMN IIA, CMN IIB, VIO, Kan, or Ery), was coupled to the reaction 2 and 3 in the presence of 4 U PK (pyruvate kinase from rabbit muscle, Merck), 4 U LDH (lactate dehydrogenase from rabbit muscle, Merck), 2 mM ATP or GTP, 2 mM PEP (phosphoenolpyruvate), 0.5 mM NADH, 40 mM KCl and 5 mM MgCl2 in a reaction buffer containing 400 mM NaCl and 20 mM Tris buffer at pH 8.0. The reactions were mixed well in a final volume of 200 μL in 96-well plates. The Cph001 activity was assayed by determining the oxidation of NADH at 340 nm. The reaction buffer and enzyme concentration of the Cph reaction was followed by previous study. The 340 nm absorbance changes were detected at 30 °C for every 1 min at a time in 15 min on an EPOCH Microplate Reader (BioTek). All reactions were carried out in triplicate.

Cph001^D189N = experiment: Coupled enzyme assay of Cph001 variant; type: biochemical, Streptosporangium roseum; conditions: for absorbance at 340 nm, Average of triplicate: 2 mM substrate + ATP
Experimental: as §1

N=C1NCCC([C@@H]2NC(=O)/C(=C/NC(N)=O)NC(=O)[C@H](CNC(=O)C[C@@H](N)CCCN)NC(=O)[C@H](CO)NC(=O)[C@@H](N)CNC2=O)N1 (stereo in doubt) [CMN IIA]
phosphotransferase activity of variant (Cph001^D189A; CMN IIA + ATP): complete loss of phosphotransferase activity
absorbance at 340 nm, Average of triplicate (Cph001^D189A; time 00:00:00): 1.495
absorbance at 340 nm, Average of triplicate (Cph001^D189A; time 00:01:00): 1.482
absorbance at 340 nm, Average of triplicate (Cph001^D189A; time 00:02:00): 1.504
absorbance at 340 nm, Average of triplicate (Cph001^D189A; time 00:03:00): 1.549
absorbance at 340 nm, Average of triplicate (Cph001^D189A; time 00:04:00): 1.574
absorbance at 340 nm, Average of triplicate (Cph001^D189A; time 00:05:00): 1.588
absorbance at 340 nm, Average of triplicate (Cph001^D189A; time 00:06:00): 1.596
absorbance at 340 nm, Average of triplicate (Cph001^D189A; time 00:07:00): 1.602
absorbance at 340 nm, Average of triplicate (Cph001^D189A; time 00:08:00): 1.612
absorbance at 340 nm, Average of triplicate (Cph001^D189A; time 00:09:00): 1.625
absorbance at 340 nm, Average of triplicate (Cph001^D189A; time 00:10:00): 1.641
absorbance at 340 nm, Average of triplicate (Cph001^D189A; time 00:11:00): 1.654
absorbance at 340 nm, Average of triplicate (Cph001^D189A; time 00:12:00): 1.662
absorbance at 340 nm, Average of triplicate (Cph001^D189A; time 00:13:00): 1.67
absorbance at 340 nm, Average of triplicate (Cph001^D189A; time 00:14:00): 1.682
absorbance at 340 nm, Average of triplicate (Cph001^D189A; time 00:15:00): 1.69
phosphotransferase activity of variant (Cph001^D189N; CMN IIA + ATP): complete loss of phosphotransferase activity
absorbance at 340 nm, Average of triplicate (Cph001^D189N; time 00:00:00): 1.495
absorbance at 340 nm, Average of triplicate (Cph001^D189N; time 00:01:00): 1.553
absorbance at 340 nm, Average of triplicate (Cph001^D189N; time 00:02:00): 1.591
absorbance at 340 nm, Average of triplicate (Cph001^D189N; time 00:03:00): 1.622
absorbance at 340 nm, Average of triplicate (Cph001^D189N; time 00:04:00): 1.655
absorbance at 340 nm, Average of triplicate (Cph001^D189N; time 00:05:00): 1.685
absorbance at 340 nm, Average of triplicate (Cph001^D189N; time 00:06:00): 1.709
absorbance at 340 nm, Average of triplicate (Cph001^D189N; time 00:07:00): 1.733
absorbance at 340 nm, Average of triplicate (Cph001^D189N; time 00:08:00): 1.755
absorbance at 340 nm, Average of triplicate (Cph001^D189N; time 00:09:00): 1.775
absorbance at 340 nm, Average of triplicate (Cph001^D189N; time 00:10:00): 1.791
absorbance at 340 nm, Average of triplicate (Cph001^D189N; time 00:11:00): 1.804
absorbance at 340 nm, Average of triplicate (Cph001^D189N; time 00:12:00): 1.814
absorbance at 340 nm, Average of triplicate (Cph001^D189N; time 00:13:00): 1.823
absorbance at 340 nm, Average of triplicate (Cph001^D189N; time 00:14:00): 1.83
absorbance at 340 nm, Average of triplicate (Cph001^D189N; time 00:15:00): 1.791
